In the assay the test system is CsgA gene expression (csgBAC promoter-GFP reporter) in E. coli UTI89. The experiment in a line: In vitro live cell fluorescent reporter assay of CsgA transcription (Reporter Assay). Type of assay: cell-based. The following applies: Escherichia coli. In short, it runs like this:
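Chromosomal single-copy csgBAC promoter–GFP reporter in E. coli UTI89, started at OD600 0.003 in YESCA broth with compound (0.14–100 μM, 1% DMSO), 20 h at 27 °C. GFP (ex 485/em 525 nm) background-subtracted and normalized to vehicle; IC50 and X[50] from curve fits. OD600 tracked growth effects.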

The mark [1] stands for this setting: read-out: Reporter Assay Abs IC50 (μM), median Abs IC50 in the CsgA reporter assay, N/A = maximum expression reduction is <50% of control.
Setting [2] is: read-out: Reporter Assay Abs IC50, activity range, class symbol.

Molecules are shown by their SMILES. Where two headings read alike, the source gives them in different places. A value given as a limit tells only on which side of the number the result lay.

One may read the IC50 as the concentration that inhibits the measured activity by half.

With `O=C(O)C1CN(Cc2ccccc2CO)c2c(-c3cccc(C(F)(F)F)c3)c(Cc3cccc4ccccc34)c(Cl)c(=O)n21` (centres unmarked) [Compound 181, 6-chloro-1-(2-(hydroxymethyl)benzyl)-7-(naphthalen-1-ylmethyl)-5-oxo-8-(3-(trifluoromethyl)phenyl)-1,2,3,5-tetrahydroimidazo[1,2-a]pyridine-3-carboxylic acid], the IC50 reads like this: under setting [1], 2 µM; under setting [2], 1.3 to 4.5 µM.
For `O=C(O)C1CN(CC2CCOCC2)c2c(-c3cccc(C(F)(F)F)c3)c(Cc3cccc4ccccc34)c(Cl)c(=O)n21` (centres unmarked) [Compound 182, 6-chloro-7-(naphthalen-1-ylmethyl)-5-oxo-1-((tetrahydro-2H-pyran-4-yl)methyl)-8-(3-(trifluoromethyl)phenyl)-1,2,3,5-tetrahydroimidazo[1,2-a]pyridine-3-carboxylic acid], the IC50 is 2.5 µM under setting [1] and 1.3 to 4.5 µM under setting [2].
The like results for `NC(=O)c1c(Cc2cccc3ccccc23)c(-c2cccc(C(F)(F)F)c2)c2n(c1=O)C(C(=O)O)CN(CCCO)S2(=O)=O` (centres unmarked) [Compound 184, 7-carbamoyl-2-(3-hydroxypropyl)-8-(naphthalen-1-ylmethyl)-6-oxo-9-(3-(trifluoromethyl)phenyl)-3,4-dihydro-2H,6H-pyrido[1,2-e][1,2,5]thiadiazine-4-carboxylic acid 1,1-dioxide] were, in that order, 2.7 µM and 1.3 to 4.5 µM.
The matching figures for `O=C(O)C1CN(Cc2ccccc2)c2c(-c3cccc(C(F)(F)F)c3)c(Cc3cccc4ccccc34)cc(=O)n21` (centres unmarked) [Compound 187, 1-benzyl-7-(naphthalen-1-ylmethyl)-5-oxo-8-(3-(trifluoromethyl)phenyl)-1,2,3,5-tetrahydroimidazo[1,2-a]pyridine-3-carboxylic acid]: 19 µM and above 10 µM.
The matching figures for `O=C(O)C1CN(CCCCCCCN2CC(C(=O)O)n3c2c(-c2cccc(C(F)(F)F)c2)c(Cc2cccc4ccccc24)c(Cl)c3=O)c2c(-c3cccc(C(F)(F)F)c3)c(Cc3cccc4ccccc34)c(Cl)c(=O)n21` (centres unmarked) [Compound 188, 1,1′-(heptane-1,7-diyl)bis(6-chloro-7-(naphthalen-1-ylmethyl)-5-oxo-8-(3-(trifluoromethyl)phenyl)-1,2,3,5-tetrahydroimidazo[1,2-a]pyridine-3-carboxylic acid)]: 0.8 µM and below 1.3 µM.
Regarding `COc1ccc(CN2CC(C(=O)O)n3c2c(-c2cccc(C(F)(F)F)c2)c(Cc2cccc4ccccc24)c(Cl)c3=O)cc1` (centres unmarked) [Compound 192, 6-chloro-1-(4-methoxybenzyl)-7-(naphthalen-1-ylmethyl)-5-oxo-8-(3-(trifluoromethyl)phenyl)-1,2,3,5-tetrahydroimidazo[1,2-a]pyridine-3-carboxylic acid], the IC50 is 2.5 µM under setting [1] and 1.3 to 4.5 µM under setting [2].
The matching figures for `O=C(O)C1CN(CCCCCCN2CC(C(=O)O)n3c2c(-c2cccc(C(F)(F)F)c2)c(Cc2cccc4ccccc24)c(Cl)c3=O)c2c(-c3cccc(C(F)(F)F)c3)c(Cc3cccc4ccccc34)c(Cl)c(=O)n21` (centres unmarked) [Compound 193, 1,1′-(hexane-1,6-diyl)bis(6-chloro-7-(naphthalen-1-ylmethyl)-5-oxo-8-(3-(trifluoromethyl)phenyl)-1,2,3,5-tetrahydroimidazo[1,2-a]pyridine-3-carboxylic acid)]: 0.6 µM and below 1.3 µM.
The like results for `O=C(O)C1CN(Cc2ccccc2)c2c(-c3cccc(C(F)(F)F)c3)c(Cc3cccc4ccccc34)c(F)c(=O)n21` (centres unmarked) [Compound 194, 1-benzyl-6-fluoro-7-(naphthalen-1-ylmethyl)-5-oxo-8-(3-(trifluoromethyl)phenyl)-1,2,3,5-tetrahydroimidazo[1,2-a]pyridine-3-carboxylic acid] were, in that order, 1.4 µM and 1.3 to 4.5 µM.
The matching figures for `O=C(O)C1CN(Cc2cccc(O)c2)c2c(-c3cccc(C(F)(F)F)c3)c(Cc3cccc4ccccc34)c(Cl)c(=O)n21` (centres unmarked) [Compound 196, 6-chloro-1-(3-hydroxybenzyl)-7-(naphthalen-1-ylmethyl)-5-oxo-8-(3-(trifluoromethyl)phenyl)-1,2,3,5-tetrahydroimidazo[1,2-a]pyridine-3-carboxylic acid]: 2.8 µM and 1.3 to 4.5 µM.
Consider `O=C(O)C1CN(CCCO)c2c(-c3cccc(C(F)(F)F)c3)c(Cc3cccc4ccccc34)c(Cl)c(=O)n21` (centres unmarked) [Compound 197, 6-chloro-1-(3-hydroxypropyl)-7-(naphthalen-1-ylmethyl)-5-oxo-8-(3-(trifluoromethyl)phenyl)-1,2,3,5-tetrahydroimidazo[1,2-a]pyridine-3-carboxylic acid], for which the IC50 under setting [1] was determined as 19.3 µM and the IC50 under setting [2] is above 10 µM.
The matching figures for `O=C(O)C1CN(Cc2ccccc2)c2c(-c3cccc(Br)c3)c(Cc3cccc4ccccc34)c(Cl)c(=O)n21` (centres unmarked) [Compound 198, 1-benzyl-8-(3-bromophenyl)-6-chloro-7-(naphthalen-1-ylmethyl)-5-oxo-1,2,3,5-tetrahydroimidazo[1,2-a]pyridine-3-carboxylic acid]: 5 µM and 4.6 to 10 µM.
The like results for `O=C(O)C1CN(CCCCCO)c2c(-c3cccc(C(F)(F)F)c3)c(Cc3cccc4ccccc34)c(Cl)c(=O)n21` (centres unmarked) [Compound 199, 6-chloro-1-(5-hydroxypentyl)-7-(naphthalen-1-ylmethyl)-5-oxo-8-(3-(trifluoromethyl)phenyl)-1,2,3,5-tetrahydroimidazo[1,2-a]pyridine-3-carboxylic acid] were, in that order, 6.9 µM and 4.6 to 10 µM.
The like results for `O=C(O)C1CN(Cc2cccc3ccccc23)c2c(-c3cccc(C(F)(F)F)c3)c(Cc3cccc4ccccc34)c(Cl)c(=O)n21` (centres unmarked) [Compound 200, 6-chloro-1,7-bis(naphthalen-1-ylmethyl)-5-oxo-8-(3-(trifluoromethyl)phenyl)-1,2,3,5-tetrahydroimidazo[1,2-a]pyridine-3-carboxylic acid] were, in that order, 1.3 µM and 1.3 to 4.5 µM.
Take `O=C(O)C1CN(Cc2ccc(-c3ccccc3)cc2)c2c(-c3cccc(C(F)(F)F)c3)c(Cc3cccc4ccccc34)c(Cl)c(=O)n21` (centres unmarked) [Compound 202, 1-([1,1′-biphenyl]-4-ylmethyl)-6-chloro-7-(naphthalen-1-ylmethyl)-5-oxo-8-(3-(trifluoromethyl)phenyl)-1,2,3,5-tetrahydroimidazo[1,2-a]pyridine-3-carboxylic acid]: the IC50 under setting [1] is 0.8 µM and the IC50 under setting [2] was below 1.3 µM.
Turning to `O=C(O)C1CN(CCC2CCCCC2)c2c(-c3cccc(C(F)(F)F)c3)c(Cc3cccc4ccccc34)c(Cl)c(=O)n21` (centres unmarked) [Compound 207, 6-chloro-1-(2-cyclohexylethyl)-7-(naphthalen-1-ylmethyl)-5-oxo-8-(3-(trifluoromethyl)phenyl)-1,2,3,5-tetrahydroimidazo[1,2-a]pyridine-3-carboxylic acid], the IC50 is 0.7 µM under setting [1] and below 1.3 µM under setting [2].
The matching figures for `CC(C)(C)c1ccc(Cc2c(-c3cccc(C(F)(F)F)c3)c3n(c(=O)c2Cl)C(C(=O)O)CN3Cc2ccccc2)cc1` (centres unmarked) [Compound 216, 1-benzyl-7-(4-(tert-butyl)benzyl)-6-chloro-5-oxo-8-(3-(trifluoromethyl)phenyl)-1,2,3,5-tetrahydroimidazo[1,2-a]pyridine-3-carboxylic acid]: 0.7 µM and below 1.3 µM.
